Values of other authors, collected in paper PMC7515950, “Physiologically based pharmacokinetic modeling to assess metabolic drug–drug interaction risks and inform the drug label for fedratinib” (Cancer Chemotherapy and Pharmacology, 2020).
Read-outs that look alike come from different tables or passages of the source.

Experiments:
OATP1B1 = biological target: T1, OATP1B1 (Homo sapiens, UniProt Q9Y6L6); conditions: read-out: Km of probe substrate, OATP1B1; from literature; ref [14]; cited from earlier work
T1 sequence (Q9Y6L6 1-691): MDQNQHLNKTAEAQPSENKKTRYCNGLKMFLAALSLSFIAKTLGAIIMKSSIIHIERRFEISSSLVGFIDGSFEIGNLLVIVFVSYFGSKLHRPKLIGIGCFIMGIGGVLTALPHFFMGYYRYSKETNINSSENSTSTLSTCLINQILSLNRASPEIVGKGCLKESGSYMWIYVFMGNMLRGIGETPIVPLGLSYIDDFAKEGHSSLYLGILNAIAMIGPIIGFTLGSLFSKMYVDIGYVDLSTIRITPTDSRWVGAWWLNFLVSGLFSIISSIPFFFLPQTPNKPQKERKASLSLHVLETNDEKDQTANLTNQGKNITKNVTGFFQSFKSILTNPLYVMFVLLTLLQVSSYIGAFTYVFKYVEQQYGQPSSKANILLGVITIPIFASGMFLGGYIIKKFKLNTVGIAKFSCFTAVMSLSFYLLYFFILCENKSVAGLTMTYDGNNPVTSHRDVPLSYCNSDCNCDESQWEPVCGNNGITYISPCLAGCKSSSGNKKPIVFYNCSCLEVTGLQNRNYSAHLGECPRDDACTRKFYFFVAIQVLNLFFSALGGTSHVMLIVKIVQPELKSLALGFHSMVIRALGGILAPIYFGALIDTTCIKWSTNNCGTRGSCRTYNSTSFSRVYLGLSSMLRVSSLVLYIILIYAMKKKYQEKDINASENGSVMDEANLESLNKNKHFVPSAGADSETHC

OCT2 = biological target: T2, OCT2 (Homo sapiens, UniProt O15244); conditions: read-out: Km of probe substrate, OCT2; from literature; ref [12]; cited from earlier work
T2 sequence (O15244 1-555): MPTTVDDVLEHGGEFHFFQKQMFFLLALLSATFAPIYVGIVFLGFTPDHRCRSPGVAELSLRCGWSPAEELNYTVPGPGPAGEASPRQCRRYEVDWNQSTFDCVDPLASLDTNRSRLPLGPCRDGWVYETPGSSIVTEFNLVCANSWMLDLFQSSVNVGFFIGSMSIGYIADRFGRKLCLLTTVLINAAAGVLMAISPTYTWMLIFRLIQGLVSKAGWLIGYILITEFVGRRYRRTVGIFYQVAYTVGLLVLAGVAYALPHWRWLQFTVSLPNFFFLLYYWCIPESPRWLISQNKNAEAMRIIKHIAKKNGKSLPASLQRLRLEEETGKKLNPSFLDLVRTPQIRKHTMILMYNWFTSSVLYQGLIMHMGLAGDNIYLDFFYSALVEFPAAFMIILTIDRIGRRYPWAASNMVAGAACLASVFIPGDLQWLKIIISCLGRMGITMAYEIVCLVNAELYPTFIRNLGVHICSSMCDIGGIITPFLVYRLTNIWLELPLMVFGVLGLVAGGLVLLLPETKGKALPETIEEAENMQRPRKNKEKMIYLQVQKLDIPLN

[1] = cancer patients, observation, cited from earlier work; for AUC GM Ratio (90% CI) / Cmax GM Ratio (90% CI): cocktail substrate with vs without fedratinib 500 mg QD
Caco-2/TC7 = conditions: reference compound of the Simcyp permeability input, 7.4:7.4; cited from earlier work
OCT1 = biological target: T3, OCT1 (Homo sapiens, UniProt O15245); design: method as in earlier work; conditions: from literature; ref [11]; read-out: Km of probe substrate, OCT1; cited from earlier work
T3 construct: expressed in transfected cells; host or cells: CHO^Fi-hOCT1
T3 sequence (O15245 1-554): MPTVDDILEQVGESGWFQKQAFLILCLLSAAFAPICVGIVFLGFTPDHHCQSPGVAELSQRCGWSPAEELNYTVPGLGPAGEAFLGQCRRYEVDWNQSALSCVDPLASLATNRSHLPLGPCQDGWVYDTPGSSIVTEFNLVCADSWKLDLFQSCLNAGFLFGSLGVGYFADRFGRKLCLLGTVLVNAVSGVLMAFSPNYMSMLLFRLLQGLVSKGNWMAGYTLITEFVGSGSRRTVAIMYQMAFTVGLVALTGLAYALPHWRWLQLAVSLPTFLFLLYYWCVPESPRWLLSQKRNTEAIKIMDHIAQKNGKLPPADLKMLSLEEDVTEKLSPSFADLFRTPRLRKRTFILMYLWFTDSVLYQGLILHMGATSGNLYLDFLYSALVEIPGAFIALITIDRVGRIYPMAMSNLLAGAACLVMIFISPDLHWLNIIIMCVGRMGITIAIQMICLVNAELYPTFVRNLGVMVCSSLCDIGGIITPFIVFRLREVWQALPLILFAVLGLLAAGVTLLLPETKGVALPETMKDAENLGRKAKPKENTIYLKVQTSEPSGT

P-gp = P-gp (Homo sapiens, UniProt P08183); conditions: read-out: Km of probe substrate, P-gp; from literature; ref [16]; cited from earlier work
P-gp, sequence (P08183 whole entry): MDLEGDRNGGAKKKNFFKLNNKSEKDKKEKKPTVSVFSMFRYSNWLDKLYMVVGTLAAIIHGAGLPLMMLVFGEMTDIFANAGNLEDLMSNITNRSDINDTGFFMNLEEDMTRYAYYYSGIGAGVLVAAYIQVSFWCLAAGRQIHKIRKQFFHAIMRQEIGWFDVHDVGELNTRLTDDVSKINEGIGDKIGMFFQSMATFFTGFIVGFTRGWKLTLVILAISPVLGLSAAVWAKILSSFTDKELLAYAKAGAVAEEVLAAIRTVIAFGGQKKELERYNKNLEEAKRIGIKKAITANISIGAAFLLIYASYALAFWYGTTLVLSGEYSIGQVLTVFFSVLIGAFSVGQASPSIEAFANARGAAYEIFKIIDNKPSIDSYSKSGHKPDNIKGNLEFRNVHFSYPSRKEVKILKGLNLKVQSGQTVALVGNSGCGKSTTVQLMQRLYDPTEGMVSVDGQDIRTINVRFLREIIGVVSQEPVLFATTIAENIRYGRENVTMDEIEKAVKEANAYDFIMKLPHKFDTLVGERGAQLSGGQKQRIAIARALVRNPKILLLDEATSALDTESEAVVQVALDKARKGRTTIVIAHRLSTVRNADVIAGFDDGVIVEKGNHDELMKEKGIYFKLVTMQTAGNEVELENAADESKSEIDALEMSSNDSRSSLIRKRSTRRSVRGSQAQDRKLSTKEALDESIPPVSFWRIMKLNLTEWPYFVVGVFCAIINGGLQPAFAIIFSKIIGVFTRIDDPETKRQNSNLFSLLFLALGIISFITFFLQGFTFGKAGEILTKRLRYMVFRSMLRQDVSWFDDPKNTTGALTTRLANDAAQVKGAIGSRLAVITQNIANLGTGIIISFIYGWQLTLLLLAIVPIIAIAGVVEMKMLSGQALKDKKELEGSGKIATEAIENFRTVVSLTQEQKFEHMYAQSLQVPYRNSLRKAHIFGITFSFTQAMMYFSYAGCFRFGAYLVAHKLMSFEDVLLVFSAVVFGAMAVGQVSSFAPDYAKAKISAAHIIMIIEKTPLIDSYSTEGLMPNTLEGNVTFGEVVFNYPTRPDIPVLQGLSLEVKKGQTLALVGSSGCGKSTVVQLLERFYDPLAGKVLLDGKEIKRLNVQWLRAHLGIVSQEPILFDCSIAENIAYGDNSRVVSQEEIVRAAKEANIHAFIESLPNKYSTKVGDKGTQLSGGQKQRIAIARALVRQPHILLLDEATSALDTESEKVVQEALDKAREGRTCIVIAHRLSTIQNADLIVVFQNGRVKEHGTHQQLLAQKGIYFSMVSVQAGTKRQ

OATP1B3 = biological target: T4, OATP1B3 (Homo sapiens, UniProt Q9NPD5); conditions: cited from earlier work
T4 sequence (Q9NPD5 1-702): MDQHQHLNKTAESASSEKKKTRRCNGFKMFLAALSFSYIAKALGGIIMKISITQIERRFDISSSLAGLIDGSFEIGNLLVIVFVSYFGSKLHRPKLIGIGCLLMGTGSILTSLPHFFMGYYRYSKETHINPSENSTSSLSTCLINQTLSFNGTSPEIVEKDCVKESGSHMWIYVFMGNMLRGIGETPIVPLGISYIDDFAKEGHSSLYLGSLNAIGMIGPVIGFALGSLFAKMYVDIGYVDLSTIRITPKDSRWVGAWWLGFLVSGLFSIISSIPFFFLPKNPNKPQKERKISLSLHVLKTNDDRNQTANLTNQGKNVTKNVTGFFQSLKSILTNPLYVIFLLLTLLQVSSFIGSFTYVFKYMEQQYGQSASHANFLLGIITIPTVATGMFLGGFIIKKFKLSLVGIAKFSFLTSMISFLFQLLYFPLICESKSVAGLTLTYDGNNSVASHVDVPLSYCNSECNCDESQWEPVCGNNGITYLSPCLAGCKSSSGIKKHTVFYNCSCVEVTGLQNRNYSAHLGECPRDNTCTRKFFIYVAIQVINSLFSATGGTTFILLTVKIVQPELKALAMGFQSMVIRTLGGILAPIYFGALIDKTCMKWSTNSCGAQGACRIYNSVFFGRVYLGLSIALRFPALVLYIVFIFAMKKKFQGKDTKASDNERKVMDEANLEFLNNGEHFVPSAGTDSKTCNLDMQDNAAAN

[2] = cocktail substrate + fedratinib 500 mg QD, GM
[3] = cocktail substrate + fedratinib 500 mg QD, Mean (SD)
[4] = cocktail substrate alone, Mean (SD)

Question: Which Km (OATP1B1) does the source give for `C[C@]12CC[C@@H]3c4ccc(O)cc4CC[C@H]3[C@@H]1CC[C@@H]2O[C@@H]1O[C@H](C(=O)O)[C@@H](O)[C@H](O)[C@H]1O` [Estradiol-17β-glucuronide] here?
Answer: 8.17 µM

Question: With `CN(C)C(=N)N=C(N)N` [Metformin] as the molecule, how does the Km (OCT2) read?
Answer: 235 µM

Question: With `COCCc1ccc(OCC(O)CNC(C)C)cc1` (stereo not drawn) [Metoprolol] as the molecule, how does the “AUC (AUCinf)” value [1, 2] read?
Answer: 1180 ng·h/mL

Question: And the Cmax [1, 2]?
Answer: 199 ng/mL

Question: And the “AUC (AUCinf)” value [1, 3]?
Answer: 1460 (938) ng/mL·h

Question: And the Cmax [1, 3]?
Answer: 221 (106) ng/mL

Question: And the “AUC (AUCinf)” value ([1]; cocktail substrate alone, GM)?
Answer: 731 ng·h/mL

Question: And the “AUC (AUCinf)” value [1, 4]?
Answer: 880 (545) ng/mL·h

Question: And the “AUC GM Ratio (90% CI)” value [1]?
Answer: 1.77 (1.27–2.47)

Question: What about the “Cmax GM Ratio (90% CI)” value [1] of the same molecule?
Answer: 1.60 (1.25–2.05)

Question: What about the “AUC GM Ratio (90% CI)” value ([1]; listed as metoprolol) of the same molecule?
Answer: 1.77

Question: What about the “Cmax GM Ratio (90% CI)” value ([1]; listed as metoprolol) of the same molecule?
Answer: 1.60

Question: Which “AUC (AUCinf)” value [1, 2] does the source give for `Cc1ncc2n1-c1ccc(Cl)cc1C(c1ccccc1F)=NC2` [Midazolam] here?
Answer: 148 ng·h/mL

Question: What about the Cmax [1, 2] of the same molecule?
Answer: 24.2 ng/mL

Question: What about the “AUC (AUCinf)” value [1, 3] of the same molecule?
Answer: 152 (38.6) ng/mL·h

Question: And the Cmax [1, 3]?
Answer: 25.9 (8.75) ng/mL

Question: And the Cmax ([1]; cocktail substrate alone (midazolam 2 mg, omeprazole 20 mg, metoprolol 100 mg once), GM)?
Answer: 13.4 ng/mL

Question: What about the Cmax ([1]; cocktail substrate alone (midazolam 2 mg, omeprazole 20 mg, metoprolol 100 mg once), Mean (SD)) of the same molecule?
Answer: 14.8 (7.56) ng/mL

Question: And the “AUC (AUCinf)” value ([1]; cocktail substrate alone, GM)?
Answer: 41.5 ng·h/mL

Question: What about the “AUC (AUCinf)” value [1, 4] of the same molecule?
Answer: 52.2 (37.9) ng/mL·h

Question: What about the “AUC GM Ratio (90% CI)” value [1] of the same molecule?
Answer: 3.84 (2.62–5.63)

Question: What about the “Cmax GM Ratio (90% CI)” value [1] of the same molecule?
Answer: 1.82 (1.49–2.21)

Question: What does the source list for `COc1ccc2[nH]c([S+]([O-])Cc3ncc(C)c(OC)c3C)nc2c1` (stereo not drawn) [Omeprazole]?
Answer: AUC (AUCinf) [1, 2]: 4690 ng·h/mL; Cmax [1, 2]: 537 ng/mL; AUC (AUCinf) [1, 3]: 5950 (3560) ng/mL·h; Cmax [1, 3]: 615 (286) ng/mL; AUC (AUCinf) ([1]; cocktail substrate alone, GM): 1590 ng·h/mL; AUC (AUCinf) [1, 4]: 2210 (1740) ng/mL·h; AUC GM Ratio (90% CI) [1]: 2.82 (2.26–3.53); Cmax GM Ratio (90% CI) [1]: 1.12 (0.81–1.53); AUC GM Ratio (90% CI) ([1]; listed as omeprazole): 2.82; Cmax GM Ratio (90% CI) ([1]; listed as omeprazole): 1.12

Question: For `CC(C)NCC(O)COc1cccc2ccccc12` (stereo not drawn) [Propranolol], which “Reference Compound Value (PCaco-2)” value (Caco-2/TC7) is on record?
Answer: 43.000 10E-06 cm/s

Question: For `CC[N+](CC)(CC)CC` [TEA], which Km (OCT1) is on record?
Answer: 296 µM

Question: Which Km (P-gp) does the source give for `C[C@H]1O[C@@H](O[C@H]2[C@@H](O)C[C@H](O[C@H]3[C@@H](O)C[C@H](O[C@H]4CC[C@@]5(C)[C@H](CC[C@@H]6[C@@H]5C[C@@H](O)[C@]5(C)[C@@H](C7=CC(=O)OC7)CC[C@]65O)C4)O[C@@H]3C)O[C@@H]2C)C[C@H](O)[C@@H]1O` [digoxin] here?
Answer: 385 µM

Question: For CCK8, which Km (OATP1B3) is on record?
Answer: 3.8 µM
